“Also recorded” adds a separate entry of the source.
Key:
[1] = system: Demodex mites; assay: Preliminary in-vitro screening of monomer compounds for effect on survival time of Demodex mites; parameters: species or system D. folliculorum; settings: 20° C., humidity 96%; for Survival time: in vitro, 35 µL monomer compound solution in 10% DMSO, mean ± SD; for in-vitro survival time of Demodex mites compared with the negative control group receiving 10% DMSO solution: in words
Description: The powders of the monomer compounds shown in Table 2 were separately dissolved in dimethyl sulfoxide (DMSO), and then diluted with sterilized double-distilled water to make the final concentration of DMSO 10%, which could not shorten the survival time of Demodex mites as per a controlled study. The negative control group received DMSO mixed with sterilized water at a final concentration of 10%.
As in Example 1, 35 µL of each solution was added to a glass slide, and the survival of the mites was observed under an optical microscope every 2 hours. During the experiment, the Demodex mites were observed by two skilled operators separately for the activities (bodies, limbs and the like) through the microscope to determine whether they were dead or not. If the two operators gave different results, the survival status was determined independently by a third skilled operator. The in-vitro culture was conducted in a climatic chamber at a temperature of 20° C. and a humidity of 96%. During the observation, the glass slides were transported in a wet box to ensure the high humidity.
In this experiment, statistical analysis was conducted using SPSS22.0 statistical software, normality test was conducted using Shapiro-Wilk test, and homogeneity of variance test was conducted using Bartlett’s test.
Effects of monomer compounds of traditional Chinese medicine on survival time of D. folliculorum The in-vitro culture of the Demodex mites was conducted in an environment at a humidity of 96% and a temperature of 20° C. The survival of the Demodex mites was observed dynamically and the survival time was recorded.

[2] = system: Demodex mites; assay: In-vitro culture of Demodex mites with traditional Chinese medicine decoctions: survival time; parameters: species or system D. folliculorum; settings: 20° C., humidity 96%
Description: The detection of Demodex mites was performed according to the conventional method of eyelash microscopy (12,20). 3 eyelashes were collected from each eyelid, with a total of 12 eyelashes. The collected eyelashes were immediately placed on glass slides with three eyelashes on each glass slide, and the glass slides were examined under a common optical microscope for observation. Demodex mites in all periods were counted and classified according to morphology (specific standard: D. brevis with a head-to-body ratio of 1:1, and D. folliculorum with a head-to-body ratio of 1:3 to 1:4). […]
On the basis of the above detection of Demodex mites, 35 µL of the solutions was separately added to the slides, and the survival of the mites was observed every 2 hours. […] If the two operators gave different results, the survival status was determined independently by a third skilled operator. […]
60 g of dried ready-to-use forms was weighed using an electronic balance, and soaked in water with an amount of 10 times (600 mL) in a marmite overnight. […]
The in-vitro culture of the Demodex mites was conducted in an environment at a humidity of 96% and a temperature of 20° C. The survival of the Demodex mites was observed dynamically and the survival time was recorded.

SMILES | Survival time [1] [h] | in-vitro survival time of Demodex mites compared with the negative control group receiving 10% DMSO solution [1] | Survival time ([2]; in vitro, 35 µL solution on slide, decoction 60 g in 100 mL, TTO and T4O 10% in sterilized water, mean ± SD) [h] | in-vitro survival time of Demodex mites compared with the negative control (sterilized water) ([2]; in words)
O=C(O)/C=C/c1ccc(O)c(O)c1 [Caffeic acid] | 66.45 ± 24.24 |  |  | 
COc1ccc(-c2cc(=O)c3c(O)cc(O)cc3o2)cc1O [Diosmetin] |  | significantly shorter; also recorded: can significantly shorten the survival time of the mites |  | 
CC1=CCC(O)(C(C)C)CC1 (stereo not shown) [T4O, terpinen-4-ol] |  |  | 40.50 ± 13.12 | did not show significant differences
C=C1CC[C@]2(C)CC[C@]3(C)[C@H](CC[C@@H]4[C@@]5(C)CC[C@H](OC(C)=O)C(C)(C)[C@@H]5CC[C@]43C)[C@H]2[C@@H]1C [Taraxasterol acetate] | 37.91 ± 20.96 | significantly shorter; also recorded: can significantly shorten the survival time of the mites |  | 
CC1(C)CC[C@]2(C)CC=C3[C@]4(C)CC[C@H]5C(C)(C)[C@@H](O)CC[C@]5(C)[C@H]4CC[C@@]3(C)[C@@H]2C1 [Taraxerol] |  | significantly shorter; also recorded: can significantly shorten the survival time of the mites |  | 

Reference: US20230165921A1, “USE OF DANDELION AND MONOMER COMPOUNDS THEREOF FOR KILLING MITES” (SMILEBIOTEK ZHUHAI LIMITED, priority 2020, published 2023)
